target: T1, ER (Homo sapiens, UniProt P03372); assay: ER degradation activity, in-cell western blot analysis in T47D cells; format: cell-based; conditions: 16 hours, Table A does not say which cell line (T47D or MCF7), read-out: Potency (DC50)
T1 construct: host or cells: T47D and MCF7 human breast cancer cells
T1 sequence (P03372 1-595): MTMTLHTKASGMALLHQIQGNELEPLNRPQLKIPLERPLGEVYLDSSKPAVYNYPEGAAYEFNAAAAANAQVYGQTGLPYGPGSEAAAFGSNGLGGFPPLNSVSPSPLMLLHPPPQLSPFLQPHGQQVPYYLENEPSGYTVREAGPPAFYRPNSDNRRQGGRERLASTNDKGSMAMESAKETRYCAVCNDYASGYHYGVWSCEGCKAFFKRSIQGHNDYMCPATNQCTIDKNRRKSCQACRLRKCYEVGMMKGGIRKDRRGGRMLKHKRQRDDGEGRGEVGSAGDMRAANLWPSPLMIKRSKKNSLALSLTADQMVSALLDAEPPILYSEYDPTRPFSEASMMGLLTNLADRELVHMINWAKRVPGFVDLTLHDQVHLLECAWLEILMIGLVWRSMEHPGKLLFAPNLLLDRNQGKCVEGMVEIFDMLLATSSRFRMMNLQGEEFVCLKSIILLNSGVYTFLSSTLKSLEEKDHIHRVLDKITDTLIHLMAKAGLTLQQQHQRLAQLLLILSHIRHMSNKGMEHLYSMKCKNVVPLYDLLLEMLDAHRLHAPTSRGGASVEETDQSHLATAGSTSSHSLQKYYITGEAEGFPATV
Summary of the method: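 T47D cells grown in DMEM with 10% FBS were treated with compounds for 16 hours at 0.5% DMSO final. ER was detected by in-cell western using 680/800 near-infrared secondary antibodies. Residual ER is given as percent of untreated and DMSO-treated wells set to 100%.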

Compound	DC50 [nM]
C[C@@H]1Cc2c([nH]c3ccccc23)[C@@H](c2c(F)cc(N3CCC(CN4CCC5(CC4)CC(N4Cc6cc7c(cc6C4)C(=O)N(C4CCC(=O)NC4=O)C7=O)C5)CC3)cc2F)N1CC(F)F (stereo partly drawn) [E 132, 6-(7-((1-(4-((1R,3R)-2-(2,2-difluoroethyl)-3-methyl-2,3,4,9-tetrahydro-1H-pyrido[3,4-b]indol-1-yl)-3,5-difluorophenyl)piperidin-4-yl)methyl)-7-azaspiro[3.5]nonan-2-yl)-2-(2,6-dioxopiperidin-3-yl)-6,7-dihydropyrrolo[3,4-f]isoindole-1,3(2H,5H)-dione]	10 to 100
C[C@@H]1Cc2c([nH]c3ccccc23)[C@@H](c2c(F)cc(N3CCC(CN4CCC5(CCC(N6Cc7cc8c(cc7C6)C(=O)N(C6CCC(=O)NC6=O)C8=O)C5)CC4)CC3)cc2F)N1CC(F)F (stereo partly drawn) [E 133, 6-(8-((1-(4-((1R,3R)-2-(2,2-difluoroethyl)-3-methyl-2,3,4,9-tetrahydro-1H-pyrido[3,4-b]indol-1-yl)-3,5-difluorophenyl)piperidin-4-yl)methyl)-8-azaspiro[4.5]decan-2-yl)-2-(2,6-dioxopiperidin-3-yl)-6,7-dihydropyrrolo[3,4-f]isoindole-1,3(2H,5H)-dione]	10 to 100
C[C@@H]1Cc2c([nH]c3ccccc23)[C@@H](c2c(F)cc(N3CC(CC(=O)N4CC(N5Cc6cc7c(cc6C5)C(=O)N(C5CCC(=O)NC5=O)C7)C4)C3)cc2F)N1CC(F)F (stereo partly drawn) [E 134, 3-(6-(1-(2-(1-(4-((1R,3R)-2-(2,2-difluoroethyl)-3-methyl-2,3,4,9-tetrahydro-1H-pyrido[3,4-b]indol-1-yl)-3,5-difluorophenyl)azetidin-3-yl)acetyl)azetidin-3-yl)-1-oxo-3,5,6,7-tetrahydropyrrolo[3,4-f]isoindol-2(1H)-yl)piperidine-2,6-dione]	10 to 100
C[C@@H]1Cc2c([nH]c3ccccc23)[C@@H](c2c(F)cc(N3CCC4(CCN(C(=O)CN5Cc6cc7c(cc6C5)C(=O)N(C5CCC(=O)NC5=O)C7=O)CC4)C3)cc2F)N1CC(F)F (stereo partly drawn) [E 135, 6-(2-(2-(4-((1R,3R)-2-(2,2-difluoroethyl)-3-methyl-2,3,4,9-tetrahydro-1H-pyrido[3,4-b]indol-1-yl)-3,5-difluorophenyl)-2,8-diazaspiro[4.5]decan-8-yl)-2-oxoethyl)-2-(2,6-dioxopiperidin-3-yl)-6,7-dihydropyrrolo[3,4-f]isoindole-1,3(2H,5H)-dione]	< 10
C[C@@H]1Cc2cc(O)ccc2[C@@H](c2c(F)cc(N3CCC4(CCN(C(=O)CN5Cc6cc7c(cc6C5)C(=O)N(C5CCC(=O)NC5=O)C7)C4)CC3)cc2F)N1CC(C)(F)F (some centres unmarked) [E 138]	10 to 100
C[C@@H]1Cc2c([nH]c3ccccc23)[C@@H](c2c(F)cc(N3CCC(CN4Cc5cc6c(cc5C4)C(=O)N(C4CCC(=O)NC4=O)C6)CC3)cc2F)N1CC(F)F (stereo partly drawn) [E 147, 3-(6-((1-(4-((1R,3R)-2-(2,2-difluoroethyl)-3-methyl-2,3,4,9-tetrahydro-1H-pyrido[3,4-b]indol-1-yl)-3,5-difluorophenyl)piperidin-4-yl)methyl)-1-oxo-3,5,6,7-tetrahydropyrrolo[3,4-f]isoindol-2(1H)-yl)piperidine-2,6-dione]	> 100
O=C1CCC(N2C(=O)c3cc4c(cc3C2=O)CN(CC(=O)N2CC3(CCN(c5ccc([C@@H]6c7ccc(O)cc7CC[C@@H]6c6ccccc6)cc5)CC3)C2)C4)C(=O)N1 (stereo partly drawn) [E 148, 2-(2,6-dioxopiperidin-3-yl)-6-(2-(7-(4-((1R,2S)-6-hydroxy-2-phenyl-1,2,3,4-tetrahydronaphthalen-1-yl)phenyl)-2,7-diazaspiro[3.5]nonan-2-yl)-2-oxoethyl)-6,7-dihydropyrrolo[3,4-f]isoindole-1,3(2H,5H)-dione]	< 10
O=C1CCC(N2C(=O)c3cc4c(cc3C2=O)CN(CC(=O)N2CCC3(CC2)CCN(c2ccc([C@@H]5c6ccc(O)cc6CC[C@@H]5c5ccccc5)cc2)CC3)C4)C(=O)N1 (stereo partly drawn) [E 149, 2-(2,6-dioxopiperidin-3-yl)-6-(2-(9-(4-((1R,2S)-6-hydroxy-2-phenyl-1,2,3,4-tetrahydronaphthalen-1-yl)phenyl)-3,9-diazaspiro[5.5]undecan-3-yl)-2-oxoethyl)-6,7-dihydropyrrolo[3,4-f]isoindole-1,3(2H,5H)-dione]	< 10
O=C1CCC(N2C(=O)c3cc4c(cc3C2=O)CN(C2CCC3(CC2)CCN(c2ccc([C@@H]5c6ccc(O)cc6CC[C@@H]5c5ccccc5)cc2)CC3)C4)C(=O)N1 (stereo partly drawn) [E 160, 2-(2,6-dioxopiperidin-3-yl)-6-(3-(4-((1R,2S)-6-hydroxy-2-phenyl-1,2,3,4-tetrahydronaphthalen-1-yl)phenyl)-3-azaspiro[5.5]undecan-9-yl)-6,7-dihydropyrrolo[3,4-f]isoindole-1,3(2H,5H)-dione]	> 100
O=C1CCC(N2C(=O)c3cc4c(cc3C2=O)CCN(CC(=O)N2CCC3(CC2)CCN(c2ccc([C@@H]5c6ccc(O)cc6CC[C@@H]5c5ccccc5)cc2)CC3)CC4)C(=O)N1 (stereo partly drawn) [E 166, 2-(2,6-dioxopiperidin-3-yl)-7-(2-(9-(4-((1R,2S)-6-hydroxy-2-phenyl-1,2,3,4-tetrahydronaphthalen-1-yl)phenyl)-3,9-diazaspiro[5.5]undecan-3-yl)-2-oxoethyl)-6,7,8,9-tetrahydroazepino[4,5-f]isoindole-1,3(2H,5H)-dione]	> 100
O=C1CCC(N2C(=O)c3cc4c(cc3C2=O)CCN(C(=O)CN2CCC3(CC2)CCN(c2ccc([C@@H]5c6ccc(O)cc6CC[C@@H]5c5ccccc5)cc2)CC3)CC4)C(=O)N1 (stereo partly drawn) [E 167, 2-(2,6-dioxopiperidin-3-yl)-7-(2-(9-(4-((1R,2S)-6-hydroxy-2-phenyl-1,2,3,4-tetrahydronaphthalen-1-yl)phenyl)-3,9-diazaspiro[5.5]undecan-3-yl)acetyl)-6,7,8,9-tetrahydroazepino[4,5-f]isoindole-1,3(2H,5H)-dione]	> 100
O=C1CCC(N2C(=O)c3cc4c(cc3C2=O)CCN(CC(=O)N2CC3(CCN(c5ccc([C@@H]6c7ccc(O)cc7CC[C@@H]6c6ccccc6)cc5)CC3)C2)CC4)C(=O)N1 (stereo partly drawn) [E 169, 2-(2,6-dioxopiperidin-3-yl)-7-(2-(7-(4-((1R,2S)-6-hydroxy-2-phenyl-1,2,3,4-tetrahydronaphthalen-1-yl)phenyl)-2,7-diazaspiro[3.5]nonan-2-yl)-2-oxoethyl)-6,7,8,9-tetrahydroazepino[4,5-f]isoindole-1,3(2H,5H)-dione]	> 100
O=C1CCC(N2C(=O)c3cc4c(cc3C2=O)CCN(C(=O)CN2CC3(CCN(c5ccc([C@@H]6c7ccc(O)cc7CC[C@@H]6c6ccccc6)cc5)CC3)C2)CC4)C(=O)N1 (stereo partly drawn) [E 170, 2-(2,6-dioxopiperidin-3-yl)-7-(2-(7-(4-((1R,2S)-6-hydroxy-2-phenyl-1,2,3,4-tetrahydronaphthalen-1-yl)phenyl)-2,7-diazaspiro[3.5]nonan-2-yl)acetyl)-6,7,8,9-tetrahydroazepino[4,5-f]isoindole-1,3(2H,5H)-dione]	> 100
O=C1CCC(N2C(=O)c3cc4c(cc3C2=O)CN(CC(=O)N2CC3(CCN(c5ccc([C@@H]6c7ccc(O)cc7CC[C@@H]6c6ccccc6)cc5)CC3)C2)CCC4)C(=O)N1 (stereo partly drawn) [E 171, 2-(2,6-dioxopiperidin-3-yl)-6-(2-(7-(4-((1R,2S)-6-hydroxy-2-phenyl-1,2,3,4-tetrahydronaphthalen-1-yl)phenyl)-2,7-diazaspiro[3.5]nonan-2-yl)-2-oxoethyl)-6,7,8,9-tetrahydroazepino[3,4-f]isoindole-1,3(2H,5H)-dione]	> 100
O=C1CCC(N2C(=O)c3cc4c(cc3C2=O)CN(CC(=O)N2CCC3(CC2)CCN(c2ccc(C(=C(CCCl)c5ccccc5)c5ccc(O)cc5)cc2)CC3)C4)C(=O)N1 (centres unmarked) [E 182, 6-(2-(9-(4-(4-chloro-1-(4-hydroxyphenyl)-2-phenylbut-1-en-1-yl)phenyl)-3,9-diazaspiro[5.5]undecan-3-yl)-2-oxoethyl)-2-(2,6-dioxopiperidin-3-yl)-6,7-dihydropyrrolo[3,4-f]isoindole-1,3(2H,5H)-dione]	< 10
O=C1CCC(N2C(=O)c3cc4c(cc3C2=O)CCN(CC(=O)N2CCC3(CC2)CCN(c2ccc([C@@H]5c6ccc(O)cc6CC[C@@H]5c5ccc(F)cc5)cc2)CC3)CC4)C(=O)N1 (stereo partly drawn) [E 183, 2-(2,6-dioxopiperidin-3-yl)-7-(2-(9-(4-((1R,2S)-2-(4-fluorophenyl)-6-hydroxy-1,2,3,4-tetrahydronaphthalen-1-yl)phenyl)-3,9-diazaspiro[5.5]undecan-3-yl)-2-oxoethyl)-6,7,8,9-tetrahydroazepino[4,5-f]isoindole-1,3(2H,5H)-dione]	> 100
O=C1CCC(N2C(=O)c3cc4c(cc3C2=O)CCN(CC(=O)N2CC3(CCN(c5ccc([C@@H]6c7ccc(O)cc7CC[C@@H]6c6ccc(F)cc6)cc5)CC3)C2)CC4)C(=O)N1 (stereo partly drawn) [E 184, 2-(2,6-dioxopiperidin-3-yl)-7-(2-(7-(4-((1R,2S)-2-(4-fluorophenyl)-6-hydroxy-1,2,3,4-tetrahydronaphthalen-1-yl)phenyl)-2,7-diazaspiro[3.5]nonan-2-yl)-2-oxoethyl)-6,7,8,9-tetrahydroazepino[4,5-f]isoindole-1,3(2H,5H)-dione]	> 100

— patent publication US20240190880A1 (THE REGENTS OF THE UNIVERSITY OF MICHIGAN, priority 2021, published 2024)
